{
  "source": "patent US20110262395A1",
  "about": "“SENSORY RECEPTORS FOR CHRONIC FATIGUE AND PAIN AND USES THEREOF” (UNIVERSITY OF UTAH RESEARCH FOUNDATION, priority 2008, published 2011)",
  "key": {"ASIC2": {"target": "T1, ASIC2 (Homo sapiens, UniProt Q16515)", "T1 sequence (Q16515 1-512)": "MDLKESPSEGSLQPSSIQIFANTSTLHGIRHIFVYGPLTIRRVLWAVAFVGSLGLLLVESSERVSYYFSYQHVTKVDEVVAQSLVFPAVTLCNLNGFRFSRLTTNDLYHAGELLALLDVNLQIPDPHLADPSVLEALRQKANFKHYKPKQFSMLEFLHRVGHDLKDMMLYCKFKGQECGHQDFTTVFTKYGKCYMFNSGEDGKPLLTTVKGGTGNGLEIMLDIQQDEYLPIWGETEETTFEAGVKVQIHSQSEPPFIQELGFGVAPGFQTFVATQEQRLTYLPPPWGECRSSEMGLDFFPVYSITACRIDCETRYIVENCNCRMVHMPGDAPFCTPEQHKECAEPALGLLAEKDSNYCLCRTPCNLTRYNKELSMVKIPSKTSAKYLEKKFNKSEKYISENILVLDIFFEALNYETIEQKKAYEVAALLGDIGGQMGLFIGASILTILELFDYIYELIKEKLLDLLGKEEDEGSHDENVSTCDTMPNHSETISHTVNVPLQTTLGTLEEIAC", "conditions": "read-out: IC 50 for ASIC2; cited from earlier work"}, "ASIC3": {"target": "T2, ASIC3 (Homo sapiens, UniProt Q9UHC3)", "T2 sequence (Q9UHC3 1-531)": "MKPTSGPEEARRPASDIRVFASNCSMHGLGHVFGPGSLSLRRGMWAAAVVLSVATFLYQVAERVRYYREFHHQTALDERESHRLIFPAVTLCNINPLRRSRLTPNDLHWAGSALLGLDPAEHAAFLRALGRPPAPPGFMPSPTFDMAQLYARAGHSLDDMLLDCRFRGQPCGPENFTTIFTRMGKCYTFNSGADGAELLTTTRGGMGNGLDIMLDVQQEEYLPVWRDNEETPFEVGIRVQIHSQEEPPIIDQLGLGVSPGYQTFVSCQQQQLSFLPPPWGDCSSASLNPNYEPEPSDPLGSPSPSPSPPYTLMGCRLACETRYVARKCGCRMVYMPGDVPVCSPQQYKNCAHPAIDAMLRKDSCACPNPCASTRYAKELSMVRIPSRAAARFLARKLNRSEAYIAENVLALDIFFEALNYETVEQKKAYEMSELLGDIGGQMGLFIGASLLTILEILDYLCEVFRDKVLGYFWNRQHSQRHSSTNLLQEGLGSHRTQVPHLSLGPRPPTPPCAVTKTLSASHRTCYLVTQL", "conditions": "cited from earlier work"}, "ASIC1": {"target": "T3, ASIC1 (Homo sapiens, UniProt P78348)", "T3 sequence (P78348 1-528)": "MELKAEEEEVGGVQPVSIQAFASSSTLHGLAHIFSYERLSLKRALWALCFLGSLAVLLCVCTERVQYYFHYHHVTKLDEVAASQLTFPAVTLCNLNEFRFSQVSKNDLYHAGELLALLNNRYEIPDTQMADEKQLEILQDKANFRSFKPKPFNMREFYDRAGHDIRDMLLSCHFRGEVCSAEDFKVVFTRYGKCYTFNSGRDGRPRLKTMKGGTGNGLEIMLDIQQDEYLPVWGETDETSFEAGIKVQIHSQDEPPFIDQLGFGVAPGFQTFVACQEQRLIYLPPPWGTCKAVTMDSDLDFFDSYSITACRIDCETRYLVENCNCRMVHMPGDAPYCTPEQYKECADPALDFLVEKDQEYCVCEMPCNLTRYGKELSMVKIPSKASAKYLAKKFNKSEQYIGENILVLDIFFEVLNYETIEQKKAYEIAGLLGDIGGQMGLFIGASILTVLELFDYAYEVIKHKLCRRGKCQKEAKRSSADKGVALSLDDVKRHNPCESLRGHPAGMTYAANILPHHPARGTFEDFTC", "conditions": "read-out: IC 50 for ASIC1; cited from earlier work"}, "DRG neurons [1]": {"tested_on": "DRG neurons", "assay": "Calcium imaging of cultured DRG neurons: antagonist effects on responses to increasing metabolites (protons, lactate, ATP)", "assay_type": "cell-based, mouse", "text": "(§1) Harvesting/culturing cells/loading cells: Thirty-nine three week old (4 wells of DRG neurons plated from each mouse), C57Bl/6 mice were anesthetized with isoflurane, and euthanized by cervical dislocation. Dorsal root ganglia (DRG) from lumbar regions were removed into HBSS, treated with trypsin, washed with MEM (Invitrogen 51200-038) containing 10% FBS (Hyclone), 2.4% glucose, 1% glutamax (Invitrogen 35050-061) and 1% penicillin/streptomycin (Atlanta Biological B2110). DRG were triturated, pre-plated and incubated at 37° C. for one hour to reduce non-neuronal cells. Neurons were gently swirled and centrifuged (110×g, 5 min). Cells were removed, re-suspended and 30 μL plated onto the 4 center wells of 24-well plates coated with poly-L-lysine and laminin. A 0.5 mm thick silicone ring with a 4 mm diameter opening sealed to the surface of each well reduced the plating area in each well. Following 1 hour, wells were filled with 37° C. culture medium with 10 ng/mL GDNF (Glial Derived Neurotrophic Factor) (Preprotech 450-10). Sixteen to 23 hours after plating, cultures were loaded with Fura-2 AM (Molecular Probes F-1221) fluorescent dye for 40-60 minutes, then washed with pH 7.4 oxygenated observation medium containing no additional ATP (145 mM NaCl, 5 mM KCl, 2 mM CaCl2, 1 mM MgCl2, 1 mM Citrate, 10 mM glucose, 10 mM MES, 10 mM HEPES). The final well volume was 500 μL.\n(§2) Combinations of metabolites applied to mimic naturally occurring conditions: When applied in an escalating series to mimic increases in metabolites that occur with muscle exercise and ischemic muscle exercise, the metabolite values shown in Table 1 were used. The values associated with pH 7.6 are at or below those normally found at rest in the mouse. The values at 7.4 approximate those found at rest. Generally, the low metabolite values associated with pH higher than 7.0 are likely to be non-noxious, while higher metabolite values at pH 7.0 and lower may be associated with pain. These values should bracket the physiological range of metabolites found in skeletal muscle with the last two values (those associated with 6.4 and 6.2) being higher than the physiological range (Bangsbo et al., 1993; Bangsbo et al., 2001; Li et al., 2003; Li et al., 2005; Reeh and Kress, 2001; Steinhagen et al., 1976).\n(§3) JYL-1422, LJO-328, A-317567, and a selected stereo isomer of A-317567 were each dissolved in 5% DMSO/95% water and a few μL of 1M HCl to a concentration of 10 mM, then quick frozen and stored at −20° C. Aliquots of antagonists were thawed and diluted to the appropriate concentrations just prior to use in the experiments. The strong buffers maintained the pH of these antagonists when mixed with metabolites.\n(§4) Imaging procedure: All experiments were performed at room temperature (20-25° C.) to allow correspondence with most previous experiments using calcium imaging and patch clamp of DRG neurons. Cells were imaged using the Meta Imaging Series Metafluor program (Universal Imaging Corp). All cells identifiable as neurons based on their round shape, clear, single nucleus, were selected from a phase image of the field. At the end of each experiment, 200 nM capsaicin was applied, followed by a wash, and then applied 50 mM KCl. Capsaicin activation indicated the presence of TRPV1 receptors on neurons, and KCl ensured that recorded objects were active neurons, and established the maximal calcium response in each neuron. For some neurons the administration of capsaicin abolished the potential for responding to KCl, thus either a response to capsaicin or to KCl indicated viability of neurons, and only viable neurons were included in analyses.\nFor each field an average of 151+10 cells were tracked real-time. […] FIGS. 1 and 2 show traces from these graphs. […]"}, "DRG neurons [2]": {"tested_on": "DRG neurons", "assay": "Calcium imaging of cultured DRG neurons: antagonist effects on responses to capsaicin, ATP or KCl (selectivity control)", "assay_type": "cell-based, mouse", "text": "as §1, §3, §4\nFor each field an average of 151+10 cells were tracked real-time. […]"}, "DRG neurons [3]": {"tested_on": "DRG neurons", "assay": "Calcium imaging of cultured DRG neurons: percent of neurons responding to applied metabolites or capsaicin", "assay_type": "cell-based, mouse", "conditions": "for ability to enhance metabolite responses: ATP: 1 μM", "text": "as §1\nChoice and concentrations of metabolites: Because the afferent receptors in muscle have been reported to be on the outside of blood vessels supplying muscle, values obtained for muscle interstitium from experiments using cat, rat, and human for muscle contraction evoked by mild to moderate to extreme exercise were used.\nProtons (pH): Values between 7.6 and 6.2 were used spanning the range found in skeletal and cardiac muscle in mammals from above resting values to those found with injury and disease.\nLactate: 1-50 mM lactate was used, a range of values that spans from rest to ischemia in muscles of humans and rats and mice.\nATP: ATP concentrations in muscle interstitium increase from 300 nM at rest to 5 μM with ischemic muscle contraction (Hellsten et al., 1998; Li et al., 2003; Li et al., 2005). These levels were used in the experiments described below. […] To allow for physiological levels of desensitization of possible P2X receptors, freshly prepared ATP at 300 nM was used for at least 30 seconds before any further increases in ATP combined with other metabolites, to establish resting conditions in DRG neurons in these experiments. […] Also used were pH 6.0 and 4.0 without additional increases in metabolites to confirm that the imaging experiments could replicate recent reports using patch-clamp techniques (Leffler et al., 2006).\nas §2\nDi-I labeling: In some experiments, neurons were identified as innervating muscle by prior muscle labeling with Di-I. Twelve 7-9 day old mice were anesthetized by cooling. […]"}},
  "note": "Entries after “also recorded” stand apart in the source; their conditions may differ.",
  "data": [
    {"compound": "CC(C)C1c2cc(C3CC3c3ccc4cc(C(=N)N)ccc4c3)ccc2CCN1C", "note": "(stereo not shown) [A-317567]", "values": [
      {"measurement": "IC50", "setting": "ASIC2", "result": 9.1, "unit": "µM"},
      {"measurement": "IC50", "setting": "ASIC3; read-out: IC 50 for ASIC3", "result": 9.5, "unit": "µM"},
      {"measurement": "IC50", "setting": "ASIC1", "result": 2, "unit": "µM"},
      {"measurement": "DRG neuron responses to metabolites blocked", "setting": "DRG neurons [1]; antagonist 100 μM, metabolites increased as high as pH 6.6, lactate 50 mM, ATP 5", "result": "~80", "unit": "%"},
      {"measurement": "responses to metabolites, % of the control level", "setting": "DRG neurons [1]; antagonist 100 μM, p<0.0001", "result": 23, "unit": "%"},
      {"measurement": "effect on responses to metabolites", "setting": "DRG neurons [1]; antagonist 200 μM", "result": "blocked all responses to metabolites"},
      {"measurement": "effect on responses to capsaicin, ATP or KCl", "setting": "DRG neurons [2]; any dose, applied for 10 minutes or less", "result": "caused no decrements in calcium responses evoked by capsaicin, ATP or KCl; also recorded: did not decrease responses to capsaicin, ATP, or KCl; also recorded: did not block DRG neuron capsaicin responses, KCl responses, or responses to 5 μM ATP"},
      {"measurement": "effect on responses to capsaicin, ATP or KCl", "setting": "DRG neurons [2]; applied for more than 20 minutes", "result": "caused some decrements in these responses"}
    ]},
    {"compound": "APETx2", "values": [
      {"measurement": "inhibition of ASIC3 and ASIC3 heteromers", "setting": "ASIC3", "result": "can selectively inhibit ASIC3 and ASIC3 heteromers"}
    ]},
    {"compound": "CC(O)C(=O)O", "note": "(stereo not shown) [lactate]", "values": [
      {"measurement": "percent of DRG neurons activated", "setting": "DRG neurons [3]; 50 mM, pH 6.6", "result": 9.5, "unit": "%"},
      {"measurement": "percent of DRG neurons activated", "setting": "DRG neurons [3]; 5-15 mM combined with protons at pH 7.3-6.8", "result": "less than 4%"},
      {"measurement": "DRG neuron responses", "setting": "DRG neurons [3]; alone, 1-50 mM, pH 7.4", "result": "caused no increases in DRG neuron responses; also recorded: activated very few mouse DRG neurons"},
      {"measurement": "total percent of DRG neurons activated", "setting": "DRG neurons [3]; lactate plus protons, all levels of metabolites included", "result": "more than 10%"}
    ]},
    {"compound": "Cc1nc(N=Nc2ccc(S(=O)(=O)O)cc2S(=O)(=O)O)c(COP(=O)(O)O)c(C=O)c1O", "note": "[PPADS]", "values": [
      {"measurement": "effect on responses to increasing metabolites", "setting": "DRG neurons [1]; antagonist 300 μM", "result": "eliminated most responses to increasing metabolites"},
      {"measurement": "effect on responses to increasing metabolites", "setting": "DRG neurons [1]; antagonist 200-300 μM, doses effective at all P2X receptors", "result": "eliminated nearly all responses to increasing metabolites"}
    ]},
    {"compound": "Nc1ncnc2c1ncn2[C@@H]1O[C@H](COP(=O)(O)OP(=O)(O)O)[C@@H](O)[C@H]1O", "note": "[ADP]", "values": [
      {"measurement": "ability to enhance metabolite responses", "setting": "DRG neurons [3]", "result": "not capable of enhancing metabolite responses"}
    ]},
    {"compound": "Nc1ncnc2c1ncn2[C@@H]1O[C@H](COP(=O)(O)OP(=O)(O)OP(=O)(O)O)[C@@H](O)[C@H]1O", "note": "[ATP]", "values": [
      {"measurement": "percent of DRG neurons responding", "setting": "DRG neurons [3]; ATP with lactate", "result": 4.7, "unit": "%"},
      {"measurement": "ability to enhance metabolite responses", "setting": "DRG neurons [3]", "result": "capable of enhancing metabolite responses when freshly prepared"},
      {"measurement": "percent of DRG neurons activated", "setting": "DRG neurons [3]; graded series, going from 2 μM to 5 μM", "result": "approximately 16%"},
      {"measurement": "percent of DRG neurons activated", "setting": "DRG neurons [3]; gradually increased from resting amounts, only at concentrations higher than 2 μM", "result": "< 11", "unit": "%"},
      {"measurement": "percent of DRG neurons activated", "setting": "DRG neurons [3]; increasing graded series from 300 nM, when 2 μM was reached", "result": "less than 10%"},
      {"measurement": "percent of DRG neurons responding", "setting": "DRG neurons [3]; pH 7.0-ATP 1 μM (increasing protons with addition of ATP)", "result": 11.2, "unit": "%"}
    ]}
  ]
}
